Measured values reported in US11945822B2, “Pyrazolo-triazine and/or pyrazolo-pxrimidine derivatives as selective inhibitor of cyclin dependent kinase” (QURIENT CO., LTD., priority 2018, dated 2024).

Assays:
Assay in all cases: In vitro IC50 profile for CDKs family kinase (33PanQinase radiometric assay)
Format in all cases: biochemical
Conditions in all cases: CDK7 selectivity profile in CDKs family
CDK1/CycA2 = target: T1, CDK1/CycA2 (Homo sapiens, UniProt P06493)
T1 construct: purchased ProQinase GmbH
T1 sequence (P06493 whole entry): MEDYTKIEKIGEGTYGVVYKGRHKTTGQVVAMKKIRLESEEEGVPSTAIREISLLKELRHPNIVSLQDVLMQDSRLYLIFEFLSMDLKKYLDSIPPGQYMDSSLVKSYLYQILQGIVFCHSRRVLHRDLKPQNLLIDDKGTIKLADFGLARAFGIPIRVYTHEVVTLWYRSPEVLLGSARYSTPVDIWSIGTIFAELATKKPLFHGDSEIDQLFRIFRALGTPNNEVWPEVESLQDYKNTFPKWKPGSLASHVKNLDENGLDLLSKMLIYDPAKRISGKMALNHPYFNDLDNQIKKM
T1 sequence (P20248 whole entry partner): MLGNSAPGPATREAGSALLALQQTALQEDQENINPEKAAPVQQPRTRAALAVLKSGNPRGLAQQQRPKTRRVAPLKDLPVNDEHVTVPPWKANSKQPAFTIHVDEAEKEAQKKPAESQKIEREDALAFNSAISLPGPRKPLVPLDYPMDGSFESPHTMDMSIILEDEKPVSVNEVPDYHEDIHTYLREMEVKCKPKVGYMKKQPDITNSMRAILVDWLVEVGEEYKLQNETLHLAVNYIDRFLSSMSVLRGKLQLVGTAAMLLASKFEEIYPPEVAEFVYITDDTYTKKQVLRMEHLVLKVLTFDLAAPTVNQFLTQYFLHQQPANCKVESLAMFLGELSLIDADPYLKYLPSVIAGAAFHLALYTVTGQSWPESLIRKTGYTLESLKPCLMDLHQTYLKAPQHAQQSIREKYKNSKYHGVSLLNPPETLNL
Procedure: (§1) In Vitro IC50 Profile for CDK7 Inhibitor Among 28 CDKs Family Kinases.
(§2) The IC50 profile of compounds were determined using 28 CDKs family protein kinases through ProQinase GmbH (Freiburg, Germany). All the protocol and materials had been provided by ProQinase GmbH. Briefly, in the process, 90 μl H2O were added to each well of a compound dilution plate. To minimize potential precipitation, the H2O was added to the plate only a few minutes before the transfer of the compound solutions into the assay plates. The plate was shaken thoroughly, resulting in a “compound dilution plate/10% DMSO”. The compound dilution plate(s) were discarded at the end of the working day. For the assays (see below), 5 μl solution from each well of the compound dilution plate were transferred into the assay plates. The final volume of the assay was 50 μl. All compounds were tested at 10 final assay concentrations in the range from 1×10^−05 M to 3×10^−10 M. The final DMSO concentration in the reaction cocktails was 1% in all cases. All protein kinases provided by ProQinase were expressed in Sf9 insect cells or in E. coli as recombinant GST-fusion proteins or His-tagged proteins, either as full-length or enzymatically active fragments. All kinases were produced from human cDNAs and purified by either GSH affinity chromatography or immobilized metal affinity chromatography. The purity of the protein kinases was examined by SDS-PAGE/Coomassie staining, the identity was checked by mass spectroscopy. Kinases from external vendors, Carna Biosciences Inc.; Invitrogen Corp.; and Millipore Corp., were expressed, purified and quality-controlled by virtue of the vendors readings. A radiometric protein kinase assay (^33PanQinase® Activity Assay) was used for measuring the kinase activity of the 28 protein kinases. All kinase assays were performed in 96-well FlashPlates™ from PerkinElmer (Boston, MA, USA) in a 50 μl reaction volume. The reaction cocktails were incubated at 30° C. for 60 minutes. The reaction was stopped with 50 μl of 2% (v/v) H3PO4, plates were aspirated and washed two times with 200 μl 0.9% (w/v) NaCl. Incorporation of ^33Pi was determined with a microplate scintillation counter (Microbeta, Wallac). All assays were performed with a BeckmanCoulter/SAGIAN™ Core System. As part of the data evaluation the low control value from a particular plate was subtracted from the high control value as well as from all 80 “compound values” of the corresponding plate. The residual activity (in %) for each well of a particular plate was calculated by using the following formula: Res. Activity (%)=100×[(cpm of compound−low control)/(high control−low control)]. Results are represented in table (table 10).

CDK1/CycE1 = target: T2, CDK1/CycE1 (Homo sapiens, UniProt P06493)
T2 construct: purchased ProQinase GmbH
Procedure: as §1, §2

CDK12 R722C/CycK = target: T3, CDK12 R722C/CycK (Homo sapiens, UniProt Q9NYV4, R722C)
T3 construct: either as full-length or enzymatically active fragments; purchased ProQinase GmbH (Freiburg, Germany)
Procedure: as §1, §2

CDK12 wt/CycK = target: T4, CDK12 wt/CycK (Homo sapiens, UniProt Q9NYV4)
T4 construct: purchased ProQinase GmbH
Procedure: as §1, §2

CDK13/CycK = target: T5, CDK13/CycK (Homo sapiens, UniProt Q14004)
T5 construct: either as full-length or enzymatically active fragments; purchased ProQinase GmbH (Freiburg, Germany)
T5 sequence (Q14004 whole entry, the tested form may be a part): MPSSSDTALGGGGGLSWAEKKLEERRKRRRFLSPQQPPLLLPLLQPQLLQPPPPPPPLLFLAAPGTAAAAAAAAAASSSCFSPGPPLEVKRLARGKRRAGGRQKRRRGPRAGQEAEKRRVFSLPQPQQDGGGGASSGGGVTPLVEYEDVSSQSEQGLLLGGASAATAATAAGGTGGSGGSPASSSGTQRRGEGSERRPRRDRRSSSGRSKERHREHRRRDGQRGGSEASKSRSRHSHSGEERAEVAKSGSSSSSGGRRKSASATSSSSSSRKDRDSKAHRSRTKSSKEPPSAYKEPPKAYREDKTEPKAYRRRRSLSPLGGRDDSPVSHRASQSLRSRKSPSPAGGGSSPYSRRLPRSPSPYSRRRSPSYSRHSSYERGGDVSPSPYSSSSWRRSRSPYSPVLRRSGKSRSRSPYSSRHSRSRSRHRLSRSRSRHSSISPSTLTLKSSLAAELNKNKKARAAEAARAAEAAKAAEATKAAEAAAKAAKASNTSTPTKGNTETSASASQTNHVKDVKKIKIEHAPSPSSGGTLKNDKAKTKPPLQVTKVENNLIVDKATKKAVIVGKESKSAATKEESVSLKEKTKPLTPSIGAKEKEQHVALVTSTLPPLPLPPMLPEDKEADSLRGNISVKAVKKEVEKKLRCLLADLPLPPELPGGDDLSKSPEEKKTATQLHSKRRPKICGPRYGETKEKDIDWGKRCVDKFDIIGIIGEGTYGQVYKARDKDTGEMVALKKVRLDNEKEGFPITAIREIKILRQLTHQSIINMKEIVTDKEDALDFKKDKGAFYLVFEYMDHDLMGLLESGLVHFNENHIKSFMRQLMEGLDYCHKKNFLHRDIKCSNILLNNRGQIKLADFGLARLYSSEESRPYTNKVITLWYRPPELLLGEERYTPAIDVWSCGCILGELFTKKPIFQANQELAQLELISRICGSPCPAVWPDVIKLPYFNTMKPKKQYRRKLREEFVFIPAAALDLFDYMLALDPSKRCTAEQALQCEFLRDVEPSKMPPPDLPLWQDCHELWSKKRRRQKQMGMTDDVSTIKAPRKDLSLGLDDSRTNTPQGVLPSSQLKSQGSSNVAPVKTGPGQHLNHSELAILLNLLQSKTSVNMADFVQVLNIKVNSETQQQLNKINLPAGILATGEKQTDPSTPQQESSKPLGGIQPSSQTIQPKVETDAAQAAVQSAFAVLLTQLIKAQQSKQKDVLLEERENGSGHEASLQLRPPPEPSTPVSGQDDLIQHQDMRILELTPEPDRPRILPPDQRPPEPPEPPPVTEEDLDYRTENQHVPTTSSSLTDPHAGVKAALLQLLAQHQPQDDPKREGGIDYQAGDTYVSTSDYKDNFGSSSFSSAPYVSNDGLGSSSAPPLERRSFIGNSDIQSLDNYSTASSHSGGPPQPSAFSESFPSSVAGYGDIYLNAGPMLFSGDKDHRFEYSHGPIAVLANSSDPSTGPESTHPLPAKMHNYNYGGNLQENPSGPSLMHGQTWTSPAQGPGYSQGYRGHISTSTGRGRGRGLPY
T5 sequence (O75909 whole entry partner, the tested form may be a part): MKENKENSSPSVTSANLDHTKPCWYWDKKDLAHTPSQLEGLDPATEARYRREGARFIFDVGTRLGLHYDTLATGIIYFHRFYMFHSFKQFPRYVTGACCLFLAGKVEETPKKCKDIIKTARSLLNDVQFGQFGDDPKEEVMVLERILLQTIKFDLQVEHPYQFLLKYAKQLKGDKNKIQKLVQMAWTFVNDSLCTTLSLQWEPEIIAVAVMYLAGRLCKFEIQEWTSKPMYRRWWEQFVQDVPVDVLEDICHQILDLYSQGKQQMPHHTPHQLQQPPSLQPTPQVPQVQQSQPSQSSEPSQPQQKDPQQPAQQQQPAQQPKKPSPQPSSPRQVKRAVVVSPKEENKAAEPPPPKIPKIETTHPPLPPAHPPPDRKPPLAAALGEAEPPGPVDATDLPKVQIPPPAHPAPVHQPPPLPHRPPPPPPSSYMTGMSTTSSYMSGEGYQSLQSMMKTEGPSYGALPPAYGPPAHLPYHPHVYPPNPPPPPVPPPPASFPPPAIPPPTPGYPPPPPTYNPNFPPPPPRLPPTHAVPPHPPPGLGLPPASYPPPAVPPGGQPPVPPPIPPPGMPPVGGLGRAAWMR
Procedure: as §1, §2

CDK16/CycY = target: T6, CDK16/CycY (Homo sapiens, UniProt Q00536)
T6 construct: either as full-length or enzymatically active fragments; purchased ProQinase GmbH (Freiburg, Germany)
T6 sequence (Q00536 whole entry, the tested form may be a part): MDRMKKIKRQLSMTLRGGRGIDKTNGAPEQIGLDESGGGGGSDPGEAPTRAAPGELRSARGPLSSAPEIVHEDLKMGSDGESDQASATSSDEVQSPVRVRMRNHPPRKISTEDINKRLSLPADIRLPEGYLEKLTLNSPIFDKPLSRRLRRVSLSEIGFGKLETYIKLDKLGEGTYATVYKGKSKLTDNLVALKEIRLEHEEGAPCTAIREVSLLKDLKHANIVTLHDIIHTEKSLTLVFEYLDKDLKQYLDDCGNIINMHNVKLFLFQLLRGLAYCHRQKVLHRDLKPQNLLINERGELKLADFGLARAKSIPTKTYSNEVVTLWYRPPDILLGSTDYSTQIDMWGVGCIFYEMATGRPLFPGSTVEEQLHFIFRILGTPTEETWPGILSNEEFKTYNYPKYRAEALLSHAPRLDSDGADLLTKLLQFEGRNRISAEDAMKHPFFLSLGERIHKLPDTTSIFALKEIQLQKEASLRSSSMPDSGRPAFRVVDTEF
T6 sequence (Q8ND76 whole entry partner, the tested form may be a part): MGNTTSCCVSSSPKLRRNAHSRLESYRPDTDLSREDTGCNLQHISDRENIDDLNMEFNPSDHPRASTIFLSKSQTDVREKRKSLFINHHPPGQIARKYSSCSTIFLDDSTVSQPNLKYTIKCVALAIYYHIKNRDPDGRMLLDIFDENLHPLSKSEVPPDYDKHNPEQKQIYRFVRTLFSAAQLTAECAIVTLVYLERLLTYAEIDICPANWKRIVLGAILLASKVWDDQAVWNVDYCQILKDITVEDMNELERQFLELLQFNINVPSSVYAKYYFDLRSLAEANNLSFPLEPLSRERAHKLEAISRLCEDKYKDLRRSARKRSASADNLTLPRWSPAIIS
Procedure: as §1, §2

CDK17/p35NCK = target: T7, CDK17/p35NCK (Homo sapiens, UniProt Q00537)
T7 construct: either as full-length or enzymatically active fragments; purchased ProQinase GmbH (Freiburg, Germany)
Procedure: as §1, §2

CDK2/CycD1 = target: T8, CDK2/CycD1 (Homo sapiens, UniProt P24941)
T8 construct: purchased ProQinase GmbH
Procedure: as §1, §2

CDK2/CycE1 = target: T9, CDK2/CycE1 (Homo sapiens, UniProt P24941)
T9 construct: purchased ProQinase GmbH
Procedure: as §1, §2

CDK20/CycH = target: T10, CDK20/CycH (Homo sapiens, UniProt Q8IZL9)
T10 construct: either as full-length or enzymatically active fragments; purchased ProQinase GmbH (Freiburg, Germany)
Procedure: as §1, §2

CDK20/CycT1 = target: T11, CDK20/CycT1 (Homo sapiens, UniProt Q8IZL9)
T11 construct: either as full-length or enzymatically active fragments; purchased ProQinase GmbH (Freiburg, Germany)
Procedure: as §1, §2

CDK3/CycE1 = target: T12, CDK3/CycE1 (Homo sapiens, UniProt Q00526)
T12 construct: purchased ProQinase GmbH
Procedure: as §1, §2

CDK4/CycD1 = target: T13, CDK4/CycD1 (Homo sapiens, UniProt P11802)
T13 construct: purchased ProQinase GmbH
Procedure: as §1, §2

CDK5/p25NCK = target: T14, CDK5/p25NCK (Homo sapiens, UniProt Q00535)
T14 construct: purchased ProQinase GmbH
Procedure: as §1, §2

CDK5/p35NCK = target: T15, CDK5/p35NCK (Homo sapiens, UniProt Q00535)
T15 construct: purchased ProQinase GmbH
Procedure: as §1, §2

CDK6/CycD1 = target: T16, CDK6/CycD1 (Homo sapiens, UniProt Q00534)
T16 construct: purchased ProQinase GmbH
Procedure: as §1, §2

CDK6/CycD3 = target: T17, CDK6/CycD3 (Homo sapiens, UniProt Q00534)
T17 construct: purchased ProQinase GmbH
Procedure: as §1, §2

CDK9/CycK = target: T18, CDK9/CycK (Homo sapiens, UniProt P50750)
T18 construct: purchased ProQinase GmbH
T18 sequence (P50750 whole entry): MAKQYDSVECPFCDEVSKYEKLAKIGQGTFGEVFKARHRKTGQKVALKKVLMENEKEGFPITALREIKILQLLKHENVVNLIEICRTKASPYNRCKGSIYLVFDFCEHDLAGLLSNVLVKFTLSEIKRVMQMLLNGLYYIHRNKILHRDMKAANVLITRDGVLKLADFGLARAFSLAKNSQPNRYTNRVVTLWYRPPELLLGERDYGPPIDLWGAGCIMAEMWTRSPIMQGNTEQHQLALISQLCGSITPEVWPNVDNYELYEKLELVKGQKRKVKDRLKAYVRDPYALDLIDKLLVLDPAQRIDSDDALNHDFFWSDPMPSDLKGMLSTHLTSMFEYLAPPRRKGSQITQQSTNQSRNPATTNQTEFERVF
T18 sequence (O75909 whole entry partner): as the sequence (O75909 whole entry partner, the tested form may be a part) above
Procedure: as §1, §2

CDK9/CycT1 = target: T19, CDK9/CycT1 (Homo sapiens, UniProt P50750)
T19 construct: purchased ProQinase GmbH
T19 sequence (P50750 whole entry): as the sequence (P50750 whole entry) above
T19 sequence (O60563 whole entry partner): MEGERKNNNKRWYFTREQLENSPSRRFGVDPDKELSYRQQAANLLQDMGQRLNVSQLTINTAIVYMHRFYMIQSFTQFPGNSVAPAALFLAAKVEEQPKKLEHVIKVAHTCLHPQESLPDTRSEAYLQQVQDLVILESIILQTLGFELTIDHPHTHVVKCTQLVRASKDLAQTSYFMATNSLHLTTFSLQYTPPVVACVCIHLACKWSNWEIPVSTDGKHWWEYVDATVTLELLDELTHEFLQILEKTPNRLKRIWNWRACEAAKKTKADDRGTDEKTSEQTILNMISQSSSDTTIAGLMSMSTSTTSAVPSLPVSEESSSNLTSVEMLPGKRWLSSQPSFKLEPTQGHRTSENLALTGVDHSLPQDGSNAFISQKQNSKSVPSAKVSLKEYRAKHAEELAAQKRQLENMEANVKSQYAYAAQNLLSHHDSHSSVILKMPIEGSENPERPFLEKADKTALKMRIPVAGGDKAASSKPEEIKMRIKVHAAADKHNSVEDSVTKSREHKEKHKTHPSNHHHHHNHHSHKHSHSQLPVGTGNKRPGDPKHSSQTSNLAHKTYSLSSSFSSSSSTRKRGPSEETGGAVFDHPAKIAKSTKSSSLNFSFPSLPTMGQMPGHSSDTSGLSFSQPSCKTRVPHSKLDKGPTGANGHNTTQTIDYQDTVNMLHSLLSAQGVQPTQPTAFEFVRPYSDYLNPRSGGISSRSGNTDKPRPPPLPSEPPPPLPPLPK
Procedure: as §1, §2

**Q.** With CC(C)c1cnn2c(NCc3c(Cl)cccc3-n3ccc(C(C)(C)O)n3)nc(N3CCC(N)CC3)nc12 [Compound 210] as the molecule, how does the IC50 (CDK1/CycA2) read?
**A.** > 10 µM

**Q.** What about the IC50 (CDK1/CycE1) of the same molecule?
**A.** > 10 µM

**Q.** What about the IC50 (CDK12 R722C/CycK) of the same molecule?
**A.** > 10 µM

**Q.** And the IC50 (CDK12 wt/CycK)?
**A.** > 10 µM

**Q.** What about the IC50 (CDK13/CycK) of the same molecule?
**A.** > 10 µM

**Q.** And the IC50 (CDK16/CycY)?
**A.** 3.96 µM

**Q.** And the IC50 (CDK17/p35NCK)?
**A.** > 10 µM

**Q.** What about the IC50 (CDK2/CycD1) of the same molecule?
**A.** > 10 µM

**Q.** What about the IC50 (CDK2/CycE1) of the same molecule?
**A.** 3.48 µM

**Q.** And the IC50 (CDK20/CycH)?
**A.** > 10 µM

**Q.** What about the IC50 (CDK20/CycT1) of the same molecule?
**A.** > 10 µM

**Q.** What about the IC50 (CDK3/CycE1) of the same molecule?
**A.** > 10 µM

**Q.** What about the IC50 (CDK4/CycD1) of the same molecule?
**A.** > 10 µM

**Q.** And the IC50 (CDK5/p25NCK)?
**A.** > 10 µM

**Q.** What about the IC50 (CDK5/p35NCK) of the same molecule?
**A.** 4.79 µM

**Q.** And the IC50 (CDK6/CycD1)?
**A.** > 10 µM

**Q.** And the IC50 (CDK6/CycD3)?
**A.** > 10 µM

**Q.** What about the IC50 (CDK9/CycK) of the same molecule?
**A.** > 10 µM

**Q.** What about the IC50 (CDK9/CycT1) of the same molecule?
**A.** > 10 µM
